Results: US6359009B1, “Substituted anilide insecticidal agents” (BASF Aktiengesellschaft, priority 1998, dated 2002)

Key:
[1] = test system: Diabrotica undecimrunctata howardi, 3rd instar southern corn rootworm; experiment: Evaluation against 3rd instar southern corn rootworm, treated talc/soil jar test, mortality after 5 days; format: in vivo, Diabrotica undecimpunctata howardi; conditions: mortality rating 0-9 after 5 days in soil
Experimental: (§1) Test solutions are prepared by dissolving the test compound in a 35% acetone in water mixture to give a concentration of 10,000 ppm. Subsequent dilutions are made with water as needed.
Diabrotica undecimrunctata howardi, 3rd instar southern corn rootworm
(§2) One cc of fine talc is placed in a 30 mL wide-mouth screw-top glass jar. One mL of the appropriate acetone test solution is pipetted onto the talc so as to provide 1.25 mg, 0.25 mg or 0.025 mg of active ingredient per jar. The jars are set under a gentle air flow until the acetone is evaporated. The dried talc is loosened, 1 cc of millet seed is added to serve as food for the insects and 25 mL of moist soil is added to each jar. The jar is capped and the contents thoroughly mixed mechanically. Following this, ten 3rd instar rootworms are added to each jar and the jars are loosely capped to allow air exchange for the larvae. The treatments are held for 5 days when mortality counts are made. Missing larvae are presumed dead, since they decompose rapidly and can not be found.

[2] = test system: Diabrotica virgifera virgifera Leconte, 3rd instar western corn rootworm; experiment: Evaluation against 3rd instar western corn rootworm, treated talc/soil jar test, mortality after 5 days; format: in vivo; conditions: mortality rating 0-9 after 5 days in soil
Experimental: as §1
Diabrotica virgifera virgifera Leconte, 3rd instar western corn rootworm
as §2

| Compound | Southern Corn Rootworm (1 ppm) rating [1] | Southern Corn Rootworm (10 ppm) rating [1] | Southern Corn Rootworm (50 ppm) rating [1] | Western Corn Rootworm (1 ppm) rating ([2]; 1 ppm) | Western Corn Rootworm (10 ppm) rating ([2]; 10 ppm) | Western Corn Rootworm (50 ppm) rating ([2]; 50 ppm) |
| --- | --- | --- | --- | --- | --- | --- |
| CC(C)C(O)C(C)(C)C(=O)Nc1ccc(C(F)(F)F)cc1 (stereo not drawn) [Compound 4, α,α,α-Trifluoro-3-hydroxy-2,2,4-trimethyl-p-valerotoluidide] | 0.0 | 0.0 | 9.0 | – | – | – |
| CC(C)[S+]([O-])C(C)(C)C(=O)Nc1ccc(C(F)(F)F)cc1 (stereo not drawn) [Compound 12, α,α,α-Trifluoro-2-(isopropylsulfinyl)-2-methyl-p-propionotoluidide] | 8.0 | 9.0 | 9.0 | 0.0 | 0.0 | 9.0 |
| CC(C)C(=O)C(C)(C)C(=O)N(C(=O)c1ccc(Cl)cc1)c1ccc(C(F)(F)F)cc1 [Compound 7, 4-Chloro-α,α,α-trifluoro-N-(2,2,4-trimethyl-3 oxovaleryl)-p-benzotoluidide] | 0.0 | 9.0 | 9.0 | – | – | – |
| CC(C)C(=O)C(C)(C)C(=O)N(C(=O)c1c(F)cccc1F)c1ccc(C(F)(F)F)cc1 [Compound 8, α,α,α,2,6-Pentafluoro-N-(2,2,4#trimethyl-3 oxovaleryl)-p-benzotoluidide] | 0.0 | 0.0 | 4.0 | – | – | – |
| CC(C)S(=O)(=O)C(C)(C)C(=O)Nc1ccc(C(F)(F)F)cc1 [Compound 13, α,α,α-Trifluoro-2-(isopropylsulfonyl)-2-methyl-p-propionotoluidide] | 3.0 | 9.0 | 9.0 | – | – | – |
| CC(=O)OC(C(C)C)C(C)(C)C(=O)Nc1ccc(Cl)cc1 (centres unmarked) [Compound 14, 4′-chloro-3-hydroxy-2,2,4-trimethylvaleranilide, acetate (ester)] | 9.0 | 9.0 | 9.0 | – | – | – |
| CC(C)/C(=N\O)C(C)(C)C(=O)Nc1ccc(C(F)(F)F)cc1 [Compound 10, α,α,α-Trifluoro-2,2,4-trimethyl-3-oxo-p-valerotoluidide, 3-oxime] | – | – | 7.0 | – | – | – |
| CC(C)C(=O)C(C)(C)C(=O)N(C)c1ccc(Cl)cc1 [Compound 2, 4′-Chloro-N,2,2,4-tetramethyl-3-oxo-valeranilide] | 0.0 | 0.0 | 3.5 | – | – | – |
| CC(C)(C(=O)Nc1ccc(C(F)(F)F)cc1)C(=O)C(C)(C)c1ccccc1 [Compound 11, α,α,α-Trifluoro-2,2,4-trimethyl-3-oxo-4-phenyl-p-valerotoluidide] | – | – | 6.0 | – | – | – |
| CC(C)C(=O)C(C)(C)C(=O)Nc1ccc(Cl)cc1 [Compound 37, 4′-Chloro-2,2,4-trimethyl-3-oxovaleranilide] | 0.0 | 9.0 | 9.0 | – | – | – |
| CC(C)C(=O)C(C)(C)C(=O)N(C(=O)c1ccc(C(F)(F)F)cc1)c1ccc(C(F)(F)F)cc1 [Compound 6, α,α,α,α′,α′,α′-Hexafluoro-N-(2,2,4-trimethyl-3-oxovaleryl)-p-tolu-p-toluidide] | 2.0 | 9.0 | 9.0 | – | – | – |
| CC(=O)OC(C(C)C)C(C)(C)C(=O)Nc1ccc(C(F)(F)F)cc1 (stereo not drawn) [Compound 9, α,α,α-Trifluoro-3-hydroxy-2,2,4-trimethyl-p-valerotoluidide, acetate (ester)] | 0.0 | 8.3 | 8.3 | – | – | – |
| CC(C)C(=O)C(C)(C)C(=O)Nc1ccc(C(F)(F)F)cc1 [Compound 1, α,α,α-Trifluoro-2,2,4-trimethyl-3-oxo-p-valerotoluidide] | 9.0 | 9.0 | 9.0 | – | – | – |
